Like-named read-outs stand apart in the source and are kept apart here.

Data on eleven compounds can be found in US11058690B2, “Use of cytochrome bc1 complex inhibitor in preparing pharmaceutical composition” (BEIJING WEILANZHIYUAN MEDICAL TECHNOLOGY CO., LTD., priority 2017, dated 2021).

For assay [1], the system named is rat uterine smooth muscle. Briefly: contraction of isolated rat uterine smooth muscle strips induced by PGF2α. The note with it: for inhibitory effect on PGF2α-induced contraction: amplitude and frequency; for IC50: read-out: IC50, inhibition of uterine smooth muscle contraction. The class given is cell-based. On the procedure:
Female healthy Wistar rats weighing 230-270 g were used in the experiment. At 2 days before the experiment, Diethylstilbestrol suspension was injected intraperitoneally once at 0.1 mg/kg, resulting in artificial estrus. The rats were sacrificed by cervical dislocation, and the uterus was removed by laparotomy and immediately placed in a glass plate containing Tyrode's solution. Connective and adipose tissues attached to the uterine wall were carefully peeled off, the uterus was cut open along the mesangial line and laid flat on the bottom of the glass plate, then one side of the uterus was divided into left and right uterine muscle strips by using a surgical blade along the uterine contraction band running along smooth muscle, the two ends of the uterine muscle strip on one side were ligated with wires respectively, and then transferred into a nutrient tube which was aerated with oxygen and filled with 5 ml of Tyrode's solution and preheated to 37.2±0.5° C., with a lower end fixed and an upper end connected with a tension sensor. The materials stood for 20-30 minutes, liquid was changed 2-3 times, then the uterus was given a load of 1 g and kept for 30-60 minutes until the uterus had regular contraction waves, 40 mM KCL solution was provided for 10 minutes, and the function of the uterine muscle strips was evaluated. Then the muscle strips were relaxed and washed 2-3 times with Tyrode's solution, then let stand for 30 minutes; after standing, the uterine muscle strips were given a load of 1 g and kept for 30-60 minutes, and the administration and the observation were carried out after the uterine muscle strips contracted stably (i.e. regular contraction waveforms appear in a microcomputer display screen), the changes of relevant data such as contraction tension, amplitude and area under the contraction curve of the uterine smooth muscle strips were recorded, and the drug given was evaluated. During the experiment, the working temperature of the Tyrode's solution was kept at 37.2±0.5° C., and oxygen was continuously aerated into the nutrient tube with 1-2 bubbles per second. A cumulative dosing method was adopted, and 5 μl was administered each time, from low concentration to high concentration. A final drug concentration refers to the concentration of the drug dissolved in 5 ml Tyrode's solution in a […] tube.
Fluacrypyrim (FAPM), the first strobilurin acaricide developed by BASF SE and Nippon Soda Co., Ltd., is a Qo site inhibitor of the mitochondrial cytochrome bc1 complex. […] The area under the smooth muscle contraction curve was calculated before drug intervention and 10 minutes after different doses of drug intervention respectively. A drug dose-effect curve was plotted by taking the area under the smooth muscle contraction curve caused by PGF2α as 100%, to calculate the median effective dose (IC50 value) of the drug for inhibiting uterine smooth muscle contraction.

For assay [2], the system named is Mouse mononuclear macrophage RAW 264.7. The assay is described as follows: nitric oxide production by LPS-stimulated macrophages (Griess assay). The format is cell-based. The note with it: for Maximum inhibition rate: in %; for IC50: read-out: IC50, NO production. (In general: Griess reagent forms a coloured azo dye with nitrite.)
In assay [3] the test system is Kunming male mice. The assay is described as follows: acetic acid writhing test on mice. The note with it: for curative effect compared with indomethacin: 100 mg/Kg versus indomethacin 50 mg/Kg; for writhe starting time (reaction latency) compared with control group: FAPM and trifloxystrobin intraperitoneal, azoxystrobin intragastric. The format is in vivo, mouse.
Assay [4] concerns Kunming female mice. Briefly: PGF2α-induced dysmenorrhea model in mice (diethylstilbestrol sensitization). The class given is in vivo, mouse. The settings on record: for Writhe starting time / Number of writhing times: Table 8; for Number of writhing times: within 30 min. The procedure:
(§1) A mouse dysmenorrhea model was established with reference to Yang L., Cao Z., Yu B. & Chai C. An in vivo mouse model of primary dysmenorrhea. Exp Anim. 2015, August 64, 295-303. Adult healthy Kunming female mice were randomly grouped, 10 mice in each group. Experimental mice were intragastrically given diethylstilbestrol 0.2 mg daily for 12 days. Different kinds and dosages of the inhibitors of the cytochrome bc1 complex were given intraperitoneally or intragastrically 30 min after the last administration. Indometacin (50 mg/kg) was injected intraperitoneally as positive control, PGF2α (1.3 mg/kg) or oxytocin (20 U/kg) was injected intraperitoneally 1 h later, and the writhe starting time (reaction latency) and the number of writhing times within 30 min were observed and recorded.
(An intraperitoneal irritant provokes the stretching counted in writhing tests.)

For assay [5], the system named is Kunming female mice. Briefly: oxytocin-induced dysmenorrhea model in mice (diethylstilbestrol sensitization). The class given is in vivo, mouse. The settings on record: for Writhe starting time / Number of writhing times: Table 9; for Number of writhing times: within 30 min. The procedure: as §1
[6] abbreviates: Rattus norvegicus, 10 min, PGF2α (450 nM), area under the contraction curve 10 minutes after drug.
[7] abbreviates: Mus musculus, RAW264.7, LPS 1 μg/mL, 24 h.
The mark [8] stands for this setting: Table 6, 200 mg/Kg intragastric.
Setting [9] is: Table 6, 200 mg/Kg intragastric, within 30 min.
Where [10] appears, read: PGF2α (450 nM), area under the contraction curve 10 minutes after drug.
The mark [11] stands for this setting: 50 mg/Kg versus indomethacin 50 mg/Kg.

The IC50 is the concentration at which inhibition is half-maximal. Regarding `CO/C(=C/C(N)=O)[C@H](C)[C@H](/C=C/c1csc(-c2csc([C@@H](C)/C=C/C=C/C(C)C)n2)n1)OC` [Myxothiazol, myxothiazol, reference compound], the “inhibitory effect on PGF2α-induced contraction” value in assay [1] (PGF2α (450 nM)) is “strongest inhibitory effect”. In assay [1] (PGF2α-induced), the “IC50 values (level in words)” value was “nanomolar level” and the half-maximal inhibitory concentration (IC50) amounted to 0.215 µM. For the same compound, in assay [2] (LPS 1 μg/mL, 24 h), the Maximum inhibition rate is reported as 95% and the IC50 turned out to be 0.0028 µM.
Turning to `COC(=O)N(OC)c1ccccc1COc1ccn(-c2ccc(Cl)cc2)n1` [Pyraclostrobin, pyraclostrobin], in assay [1] (setting [6]), the IC50 was 1.05 ± 0.01 µM.
For `C/C=C(C)/C=C/C=C/[C@H](OC)[C@@H](C)[C@@H](OC)[C@@H](C)CCc1oc2c(O)c(OC)cc(OC)c2c(=O)c1C` [Stigmatellin, reference compound], the “inhibitory effect on PGF2α-induced contraction” value in assay [1] (PGF2α (450 nM)) is “strongest inhibitory effect”. In assay [1] (PGF2α-induced), the “IC50 values (level in words)” value is listed as “nanomolar level”. Moreover, the IC50 in assay [1] (Rattus norvegicus, PGF2α-induced) was found to be 0.0899 µM; in assay [2] (Mus musculus, RAW264.7, 24 h), 0.00624 ± 0.00115 µM. For the same compound, the Maximum inhibition rate in assay [2] (LPS 1 μg/mL, 24 h) was determined as 88.3±3.9%.
In the case of `O=C1C(O)=C([C@H]2CC[C@H](c3ccc(Cl)cc3)CC2)C(=O)c2ccccc21` [atovaquone, reference compound], the IC50 in assay [1] (setting [6]) was determined as 8.44 ± 0.7 µM.
In the case of `CON=C(C(=O)OC)c1ccccc1CON=C(C)c1cccc(C(F)(F)F)c1` [trifloxystrobin], the IC50 in assay [1] (setting [6]) turned out to be 1.77 ± 0.05 µM; in assay [2] (setting [7]), 0.64 ± 0.21 µM. In assay [2] (LPS 1 μg/mL, 24 h), this compound returned a Maximum inhibition rate of 90.7 ± 2.9%. For the same compound, the “curative effect compared with indomethacin” value in assay [3] is recorded as “equivalent to indomethacin at 50 mg/Kg”. The “writhe starting time (reaction latency) compared with control group” value in assay [3] is given as “significantly prolonged”. In addition, the “Number of writhing times” value in assay [3] (Table 4, 50 mg/Kg intraperitoneal, within 30 min) is 22.3 ± 1.2; in assay [3] (ip, 100 mg/kg, 0.5 h), 14.0 ± 1.7; in assay [3] (ip, 200 mg/kg, 0.5 h), 4.0 ± 2.3. In addition, the Writhe starting time is 3.3 ± 0.5 min in assay [3] (ip, 50 mg/kg); 4.3 ± 1.6 min in assay [3] (ip, 100 mg/kg); 8.5 ± 2.4 min in assay [3] (ip, 200 mg/kg).
For the compound `CO/N=C(/C(=O)OC)c1ccccc1COc1ccccc1C` [kresoxim-methyl], the figures for the IC50 in assay [1] (setting [6]) and in assay [2] (setting [7]) were 4.08 ± 0.29 µM and 2.77 ± 0.69 µM, respectively. In assay [2] (LPS 1 μg/mL, 24 h), this compound displayed a Maximum inhibition rate of 88.7 ± 5.6%. Also, the “Writhe starting time” value was “not prolonged” in assay [3] (200 mg/Kg intragastric) and 3.4 ± 1.0 min in assay [3] (setting [8]). In addition, the “effect on number of writhing times” value in assay [3] (200 mg/Kg intragastric) was “obviously inhibited”. Further, the “Number of writhing times” value in assay [3] (setting [9]) amounted to 33.0 ± 2.9.
As to `CNC(=O)/C(=N/OC)c1ccccc1COc1cc(C)ccc1C` [Dimoxystrobin, dimoxystrobin], the IC50 in assay [1] (setting [10]) came out at 1.65 ± 0.12 µM. In assay [3] (200 mg/Kg intragastric), the “Writhe starting time” value is listed as “not prolonged” and the “effect on number of writhing times” value is reported as “obviously inhibited”. For the same compound, the Writhe starting time in assay [3] (setting [8]) was determined as 3.3 ± 0.5 min. Further, the “Number of writhing times” value in assay [3] (setting [9]) was 31.5 ± 4.7.
In the case of `CC(C)c1c(C(=O)Nc2ccccc2)c(-c2ccccc2)c(-c2ccc(F)cc2)n1CC[C@@H](O)C[C@@H](O)CC(=O)O` [atorvastatin, reference compound], the half-maximal inhibitory concentration (IC50) in assay [1] (setting [6]) is 8.44 ± 0.7 µM.
Regarding `CO/N=C(/C1=NOCCO1)c1ccccc1Oc1ncnc(Oc2ccccc2Cl)c1F` [Fluoxastrobin, fluoxastrobin], in assay [1] (setting [6]), the IC50 came to 2.63 ± 0.3 µM.
Take `CO/C=C(/C(=O)OC)c1ccccc1COc1cccc(C(F)(F)F)n1` [Picoxystrobin, picoxystrobin]: in assay [1] (setting [10]), the IC50 was 1.2 ± 0.02 µM. Further, in assay [3] (200 mg/Kg intragastric), the “Writhe starting time” value is given as “not prolonged” and the “effect on number of writhing times” value is “obviously inhibited”. Also, the Writhe starting time in assay [3] (setting [8]) was found to be 3.3 ± 1.0 min. Moreover, the “Number of writhing times” value in assay [3] (setting [9]) is 29.3 ± 4.7.
As for `CO/C=C(/C(=O)OC)c1ccccc1Oc1cc(Oc2ccccc2C#N)ncn1` [azoxystrobin], the IC50 turned out to be 1.7 ± 0.12 µM in assay [1] (setting [10]) and 1.89 ± 0.35 µM in assay [2] (LPS 1 μg/mL, 24 h). The compound also had a Maximum inhibition rate in assay [2] (LPS 1 μg/mL, 24 h) of 86.7 ± 4.3%. The figures for the “curative effect compared with indomethacin” value in assay [3], in assay [4] (setting [11]) and in assay [5] (setting [11]) were “equivalent to indomethacin at 50 mg/Kg”, “equivalent to indomethacin at 50 mg/Kg” and “equivalent to 50 mg/Kg of indomethacin”, respectively. For the same compound, the “writhe starting time (reaction latency) compared with control group” value in assay [3] is on record as “not significantly prolonged”. Moreover, the Writhe starting time was 3.2 ± 1.1 min in assay [3] (Table 5, 50 mg/Kg intragastric); 3.4 ± 1.8 min in assay [3] (Table 5, 100 mg/Kg intragastric); 3.7 ± 1.5 min in assay [3] (Table 5, 200 mg/Kg intragastric); 3.4 ± 1.2 min in assay [3] (Table 5, 400 mg/Kg intragastric); 2.1 ± 1.0 min in assay [4] (50 mg/Kg intragastric); 2.0 ± 1.1 min in assay [4] (100 mg/Kg intragastric). The Writhe starting time in assay [4] (200 mg/Kg intragastric) turned out to be 2.2 ± 0.8 min; in assay [5] (50 mg/Kg intragastric), 3.3 ± 1.5; in assay [5] (100 mg/Kg intragastric), 3.9 ± 1.5; in assay [5] (200 mg/Kg intragastric) it was 3.3 ± 1.3. The “Number of writhing times” value in assay [3] (Table 5, 50 mg/Kg intragastric, within 30 min) turned out to be 31.9 ± 3.1; in assay [3] (Table 5, 100 mg/Kg intragastric, within 30 min), 24.9 ± 4.6; in assay [3] (Table 5, 200 mg/Kg intragastric, within 30 min), 21.6 ± 3.5; in assay [3] (Table 5, 400 mg/Kg intragastric, within 30 min) it was 12.4 ± 4.2; in assay [4] (50 mg/Kg intragastric), 17.7 ± 1.9; in assay [4] (100 mg/Kg intragastric), 12.8 ± 2.4. For the same compound, the “Number of writhing times” value came to 10.3 ± 1.3 in assay [4] (200 mg/Kg intragastric), 24.2 ± 4.1 in assay [5] (50 mg/Kg intragastric), 14.2 ± 2.2 in assay [5] (100 mg/Kg intragastric) and 7.6 ± 1.9 in assay [5] (200 mg/Kg intragastric). Moreover, the “effect on number of writhing times” value is recorded as “in a dose-dependent manner” in assay [4] (FAPM intraperitoneal, azoxystrobin intragastric, 50, 100 and 200 mg/Kg one hour before); “in a dose-dependent manner” in assay [5] (intragastric 50, 100 and 200 mg/Kg).
